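The compound was tested at five concentrations on cells cultured in 96-well plates, with a 48-hour exposure period. GI50 = concentration required for 50% inhibition of growth.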 Calls of active or inactive are those of the source. No stated cut-off is given here; in the data, active = GI50 up to about 1.1 µM and inactive = higher.

Some test systems named below: 786-0; CAKI-1; HCC 2998; HCT-116; HOP-92; IGROV-1; KM12; LOX IMVI; OVCAR-3; SF-268; SF-295; SF-539; SN12C; SNB-75; UO-31; MDA-MB-231; MDA-MB-435; NCI/ADR-RES.
Common to all, as to test: NCI tumour cell line growth inhibition, 48 h

Take `COC(=O)/C(=N\NC(N)=O)C(C(=O)C(=O)Nc1ccccc1C(=O)OC)c1nc2ccc(C(=O)c3ccccc3)cc2nc1O` (centres undefined): the GI50 in the assay on 786-0, in the assay on CAKI-1, in the assay with HCC 2998, in the assay with HCT-116, with HOP-92 and with IGROV-1 was > 100 µM (inactive) throughout. Moreover, the GI50 with KM12, with LOX IMVI, in the assay with OVCAR-3, in the assay on SF-268, in the assay on SF-295 and in the assay on SF-539 was > 100 µM (inactive) throughout. The GI50 in the assay on SN12C, in the assay with SNB-75 and in the assay with UO-31 was > 100 µM (inactive) each time.

Regarding `Cc1cc(O)nc(CNC(=O)Cc2ccccc2)n1`, the GI50 in the assay with 786-0, in the assay on CAKI-1, in the assay with HCC 2998, in the assay on HOP-92, with IGROV-1 and with KM12 was > 100 µM (inactive) each time. The GI50 in the assay on LOX IMVI, in the assay on OVCAR-3, in the assay with SF-268, with SF-295, in the assay with SF-539 and in the assay on SN12C was > 100 µM (inactive) each time. Also, the GI50 in the assay on SNB-75 and with UO-31 was > 100 µM (inactive) throughout.

On to `CC1=COC(=O)c2ccccc2N1`, for which the GI50 in the assay with 786-0, with CAKI-1, with HCC 2998, in the assay on HCT-116, in the assay on HOP-92 and in the assay with IGROV-1 was > 100 µM (inactive) each time. The GI50 in the assay on KM12, with LOX IMVI, in the assay with OVCAR-3, with SF-268, with SF-295 and with SF-539 was > 100 µM (inactive) throughout. The GI50 in the assay on SN12C, in the assay with SNB-75 and with UO-31 was > 100 µM (inactive) in each case.

Regarding `CCN(CC)CCNC(=O)c1ccccc1NC(=O)C(=O)Nc1ccccc1C(=O)NCCN(CC)CC`, the GI50 with 786-0 was 20.6 µM (inactive); with CAKI-1, > 100 µM (inactive); in the assay on HCC 2998, 32.5 µM (inactive); in the assay on HCT-116, 17.5 µM (inactive); in the assay with HOP-92 it was 31.4 µM (inactive); in the assay with IGROV-1 it was > 100 µM (inactive). For the same compound, the GI50 is 45.6 µM (inactive) in the assay with KM12; 24.9 µM (inactive) with LOX IMVI; 62.7 µM (inactive) with OVCAR-3; > 100 µM (inactive) in the assay on SF-268; 42.5 µM (inactive) in the assay on SF-295; 24.1 µM (inactive) in the assay with SF-539. Further, the values for the GI50 in the assay with SN12C, in the assay with SNB-75 and in the assay on UO-31 were 60.5 µM (inactive), 47 µM (inactive) and > 100 µM (inactive), respectively.

With `O=C(Nc1ccc(C(F)(F)F)cc1[N+](=O)[O-])C(=O)C(C(=O)c1ccc2ccccc2c1)C1OC(=O)c2ccccc21` (centres undefined), the GI50 in the assay with 786-0 is 5.56 µM (inactive); in the assay on CAKI-1, 8.26 µM (inactive); with HCC 2998 it was 5.89 µM (inactive); with HCT-116 it was 4.36 µM (inactive); in the assay on HOP-92, 0.34 µM (active); in the assay with IGROV-1 it was 19.5 µM (inactive). For the same compound, the GI50 is 11.9 µM (inactive) in the assay with KM12; 6.38 µM (inactive) with LOX IMVI; 12.8 µM (inactive) with OVCAR-3; 4.16 µM (inactive) in the assay with SF-268; 4.85 µM (inactive) in the assay with SF-295; 1.63 µM (inactive) with SF-539. The GI50 was 12.9 µM (inactive) in the assay on SN12C, 6.97 µM (inactive) in the assay with SNB-75 and 13.8 µM (inactive) in the assay with UO-31.

For `COc1cc2ccc3c4cc(OC)c(OC)cc4c[n+](C)c3c2cc1O`, the GI50 in the assay with 786-0, in the assay on CAKI-1, in the assay with HCC 2998, in the assay on HCT-116, in the assay with HOP-92 and with IGROV-1 was > 100 µM (inactive) throughout. The GI50 with KM12 is > 100 µM (inactive); in the assay with LOX IMVI, > 73.8 µM (inactive); with OVCAR-3, 67.5 µM (inactive); with SF-268, 0.658 µM (active); with SF-539 it was > 100 µM (inactive); in the assay with SN12C, 2.1 µM (inactive). Besides, the GI50 was 15.2 µM (inactive) with SNB-75 and > 100 µM (inactive) in the assay on UO-31.

In the case of `COS(=O)(=O)OCCC(NC(=O)OCc1ccccc1)C(=O)OCc1ccccc1` (centres undefined), the GI50 with 786-0 was > 100 µM (inactive); in the assay on CAKI-1 it was > 100 µM (inactive); with HCC 2998, 66.4 µM (inactive); in the assay with HCT-116 it was > 100 µM (inactive); in the assay on HOP-92, > 100 µM (inactive); with IGROV-1, > 100 µM (inactive). In addition, the GI50 in the assay on KM12, with LOX IMVI, with OVCAR-3, in the assay with SF-268, in the assay with SF-295 and with SF-539 was > 100 µM (inactive) each time. For the same compound, the GI50 in the assay with SN12C is > 100 µM (inactive); in the assay on SNB-75, 71.6 µM (inactive); in the assay on UO-31, > 100 µM (inactive).

As to `CCOC(=O)C(NC(=O)C(CCCCNP(=O)(OCC)OCC)NC(=O)C(C)NC(C)=O)C(C)C` (centres undefined), the GI50 in the assay with 786-0, with CAKI-1, with HCC 2998, in the assay with HCT-116, with HOP-92 and with IGROV-1 was > 100 µM (inactive) in each case. The GI50 in the assay with KM12, in the assay with LOX IMVI, with MDA-MB-231, in the assay with MDA-MB-435, in the assay on NCI/ADR-RES and in the assay with OVCAR-3 was > 100 µM (inactive) each time. For the same compound, the GI50 with SF-268, in the assay with SF-295, with SF-539, with SN12C, in the assay on SNB-75 and in the assay with UO-31 was > 100 µM (inactive) throughout.

Turning to `FC(F)(F)c1ccc(/C=N/C23CC4CC(CC(C4)C2)C3)cc1`, the GI50 in the assay on 786-0, with CAKI-1, with HCC 2998, in the assay on HCT-116, in the assay on HOP-92 and with IGROV-1 was > 100 µM (inactive) in each case. Besides, the GI50 in the assay on KM12, with LOX IMVI, in the assay on OVCAR-3, with SF-268, in the assay on SF-295 and with SF-539 was > 100 µM (inactive) throughout. Also, the GI50 in the assay on SN12C, with SNB-75 and in the assay with UO-31 was > 100 µM (inactive) throughout.

As for `CCCCN(CC)C(=O)C(=O)C1C(=O)Nc2ccccc2[S+]1[O-]` (centres undefined), the GI50 in the assay on 786-0, in the assay on CAKI-1, in the assay on HCC 2998, in the assay on HCT-116, with HOP-92 and in the assay with IGROV-1 was > 100 µM (inactive) each time. Besides, the GI50 in the assay with KM12, in the assay with LOX IMVI, in the assay on OVCAR-3, in the assay on SF-268, with SF-539 and in the assay on SN12C was > 100 µM (inactive) throughout. The GI50 with SNB-75 and with UO-31 was > 100 µM (inactive) in each case.

Turning to `CCN1N=CSC12C(=O)N(c1ccccc1)C(=O)N2c1ccccc1` (centres undefined), the GI50 with 786-0, in the assay on CAKI-1, in the assay with HCC 2998, in the assay with HCT-116, with HOP-92 and in the assay with IGROV-1 was > 100 µM (inactive) each time. The GI50 with KM12, in the assay on LOX IMVI, in the assay on OVCAR-3, in the assay on SF-268, in the assay with SF-295 and in the assay on SF-539 was > 100 µM (inactive) in each case. The GI50 in the assay on SN12C, in the assay on SNB-75 and in the assay on UO-31 was > 100 µM (inactive) in each case.

Take `CC(C)(C)C1CCC(=O)C(C(O)CC2CC(=O)N(c3ccccc3)C(=O)C2)C1` (centres undefined): the GI50 with 786-0, in the assay on CAKI-1, in the assay on HCC 2998, in the assay with HCT-116, in the assay on HOP-92 and with IGROV-1 was > 100 µM (inactive) throughout. Besides, the GI50 is > 100 µM (inactive) in the assay with KM12; 49.5 µM (inactive) in the assay on LOX IMVI; > 100 µM (inactive) with OVCAR-3; 81.5 µM (inactive) in the assay with SF-268; > 100 µM (inactive) in the assay with SF-295; > 100 µM (inactive) with SF-539. The GI50 in the assay on SN12C, with SNB-75 and with UO-31 was > 100 µM (inactive) each time.

For `COc1ccc(S(=O)(=O)N(CC(=O)O)c2ccccc2)cc1`, the GI50 in the assay on 786-0, in the assay with CAKI-1, in the assay with HCC 2998, with HOP-92, with IGROV-1 and in the assay on KM12 was > 100 µM (inactive) each time. The GI50 in the assay with LOX IMVI, with OVCAR-3, in the assay on SF-268, in the assay with SF-295, in the assay on SF-539 and in the assay on SN12C was > 100 µM (inactive) throughout. Also, the values for the GI50 in the assay on SNB-75 and in the assay with UO-31 were 67.3 µM (inactive) and > 100 µM (inactive), respectively.

(Values after ChEMBL document CHEMBL1201862, “PubChem BioAssay data set” (2004).)
